# Entries after “also recorded” stand apart in the source; their conditions may differ. Where no end group is shown, it is not given here.
# Columns and labels:
# [1] = Saiki et al., Jpn. J. Cancer Res., 84, 558, 1993; cited from earlier work
# [2] = Saiki et al., Jpn. J. Cancer Res., 84, 558, 1993; cited from earlier work; remark: listed apart in the source
# melanoma cells = settings: Humphries, Science 233, 467, 1986; cited from earlier work
# [3] = tested on: K562 cell line derived from human chronic myelocytic leukemia; experiment: Cell adhesion inhibitory activity on Mn2+-treated anchorage-independent K562 cells on fibronectin-coated plates; assay type: cell-based; settings: for cell adhesion inhibitory activity (alanine scanning): K562 cells, biotinylated peptides of Table 1, conducted similarly to Example 2, FIG. 6
# Excerpt: (§1) (Danen et al., J. Biol. Chem., 270, 37, 21612, 1995; Mould et al., J. Biol. Chem., 270, 44, 26270, 1995.) This allows the cells to acquire adhesiveness to the extracellular matrices mediated by integrins. Such experimental induction of adhesion can be utilized as models for cell adhesion in the processes of metastatis of cancer cells and infiltration of inflammatory cells into tissues.
# (§2) The K562 cell line derived from human chronic myelocytic leukemia, U937 cell line derived from human hystiocytic lymphoma and Ramos cell line derived from human Burkitt's lymphoma (all available from American Type Tissue Culture Collection-ATCC), which are one kind of anchorage-independent cells, were then treated with Mn^2+ to prepare a system, where the cell adhesion inhibitory activity of the peptides was evaluated.
# Ninety six well plates were coated with fibronectin, which is one kind of extracellular matrix: fibronectin (FN) was prepared by the method of Fukai et al., J. Biol. Chem., 266, 8807, 1991. After cells were suspended to a cell density of 2×10^5/ml in a HEPES buffered physiological saline containing 0.1 mM Mn^2+, the cells (100 μl) were added to the plate and incubated at 37° C. under 5% CO2 for 60 min. Concurrently with addition of the cell suspension, the biotinylated peptide as synthesized in Example 1 (the amino acid sequence of the peptide portion is set forth in SEQ ID NO: 2) was added to the plate to give a final concentration of from 50 to 200 μg/ml. […] As a negative control, the group to which only biotin (unbound with the peptide) had been added was also evaluated.
# FN coating was carried out by adding to each well, FN phosphate buffer (100 μl) that had been prepared to 10 μg/ml, by conducting incubation at 37° C. under 5% CO2 for 60 min and then by washing the well with phosphate buffer 3 times. After cells in each well were fixed with 5% formaldehyde (Wako Pure Chemical Industries, Ltd.), unbound cells were removed and five areas were randomly selected in each well to count the cells under a microscope.
# The alanine scanning method is a technique that is used to identify amino acid sequence regions essential to physiological activities of proteins and peptides. (Puffer et al., J. Virol., 71, 6541, 1997; Wu and Hersh, J. Biol. Chem., 270, 49, 29111, 1995.) This method was then employed to analyze the present peptides. The peptides listed in Table 1, all of which were biotinylated (Example 1), were used in the experiments. For evaluation, the K562 cells derived from human chronic myelocytic leukemia, which was one kind of anchorage-independent cell, were used.
# Evaluation of the cell adhesion inhibitory activity was conducted similarly to Example 2.
# [4] = tested on: human fibrosarcoma HT1080; experiment: Cell adhesion (spreading) inhibitory activity on anchorage-dependent HT1080 cells; assay type: cell-based; settings: fibronectin- or vitronectin-coated plates, biotinylated peptide 50 to 200 μg/ml, 60 min
# Experimental: (§3) The human melanoma A375SM cells and human fibrosarcoma HT1080 (both available from ATCC), which are anchorage-dependent cells, were used in the evaluation. Cell adhesion inhibitory activity was evaluated according to the method of Fukai et al. as described in Biochem. Biophys. Res. Commun., 220, 394-398, 1996. The number of spread cells was counted as an index of the cell adhesion inhibitory activity.
# (§4) A375SM cells or HT1080 cells were prepared to 2×10^5/ml in Dulbecco's Modified Eagle Medium (DMEM: GIBCO BRL) containing 0.1% Ovalbumin (Wako Pure Chemical Industries, Ltd.). This cell suspension (100 μl) was added to 96-well plates that had been coated with fibronectin or vitronectin (VN), which are one kind of extracellular matrix, and incubated at 37° C. under 5% CO2 for 60 min. Concurrently with addition of the cell suspension, the biotinylated peptide as synthesized in Example 1 was added to the plates to give a final concentration of from 50 to 200 μg/ml. […] FN and VN coatings were carried out by adding to each well, FN or VN phosphate buffered saline (100 μl) that had been prepared to 0.5 μg/ml, by conducting incubation at 37° C. under 5% CO2 for 60 min and then by washing the well with phosphate buffered saline 3 times. […]
# [5] = tested on: U937 cell line derived from human hystiocytic lymphoma; experiment: Cell adhesion inhibitory activity on Mn2+-treated anchorage-independent U937 cells on fibronectin-coated plates; assay type: cell-based; settings: U937 cells in 0.1 mM Mn2+, biotinylated peptide 50 to 200 μg/ml, 60 min, adherent cells counted
# Excerpt: as §1, §2
# (§5) Ninety six well plates were coated with fibronectin, which is one kind of extracellular matrix: fibronectin (FN) was prepared by the method of Fukai et al., J. Biol. Chem., 266, 8807, 1991. After cells were suspended to a cell density of 2×10^5/ml in a HEPES buffered physiological saline containing 0.1 mM Mn^2+, the cells (100 μl) were added to the plate and incubated at 37° C. under 5% CO2 for 60 min. […] As a negative control, the group to which only biotin (unbound with the peptide) had been added was also evaluated. […]
# [6] = tested on: human melanoma A375SM cells; experiment: Cell adhesion (spreading) inhibitory activity on anchorage-dependent A375SM cells; assay type: cell-based; settings: fibronectin- or vitronectin-coated plates, biotinylated peptide 50 to 200 μg/ml, 60 min
# Experimental: as §3, §4
# [7] = tested on: Ramos cell line derived from human Burkitt's lymphoma; experiment: Cell adhesion inhibitory activity on Mn2+-treated anchorage-independent Ramos cells on fibronectin-coated plates; assay type: cell-based; settings: Ramos cells in 0.1 mM Mn2+, biotinylated peptide 50 to 200 μg/ml, 60 min, adherent cells counted
# Excerpt: as §1, §2, §5
substance,measurement,setting,value
GRGDS [GRGDS peptide],decomposition by enzyme,[1],liable to be decomposed by enzyme
same,rate of clearance from the circulation following administration,[2],fast
same,inhibition of experimental metastasis of melanoma cells to the lung,melanoma cells,inhibits the experimental metastasis of melanoma cells to the lung
Gly Leu Lys Pro Gly Val Asp Ala Thr Ile Thr Val Tyr Ala Val (GLKPGVDATITVYAV; also: biotinylated (place not given here)) [SEQ ID NO: 3],cell adhesion inhibitory activity (alanine scanning),[3],equal to or greater than the cell adhesion inhibitory activity of the peptide set forth in SEQ ID NO: 2; also recorded: much greater cell adhesion inhibitory activity compared to the peptide set forth in SEQ ID NO: 2
same,cell adhesion inhibitory activity (alanine scanning),[3]; listed as SEQ NO: 3,stronger cell adhesion inhibitory activity than did SEQ NO: 2
Gly Leu Lys Pro Gly Val Asp Tyr Ala Ile Thr Val Tyr Ala Val (GLKPGVDYAITVYAV; also: biotinylated (place not given here)) [SEQ ID NO: 4],cell adhesion inhibitory activity (alanine scanning),[3],cell adhesion inhibitory activity was lost
Gly Leu Lys Pro Gly Val Asp Tyr Thr Ala Thr Val Tyr Ala Val (GLKPGVDYTATVYAV; also: biotinylated (place not given here)) [SEQ ID NO: 5],cell adhesion inhibitory activity (alanine scanning),[3],cell adhesion inhibitory activity was lost
Gly Leu Lys Pro Gly Val Asp Tyr Thr Ile Ala Val Tyr Ala Val (GLKPGVDYTIAVYAV; also: biotinylated (place not given here)) [SEQ ID NO: 6],cell adhesion inhibitory activity (alanine scanning),[3],cell adhesion inhibitory activity was lost
Gly Leu Lys Pro Gly Val Asp Tyr Thr Ile Thr Ala Tyr Ala Val (GLKPGVDYTITAYAV; also: biotinylated (place not given here)) [SEQ ID NO: 7],cell adhesion inhibitory activity (alanine scanning),[3],equal to or greater than the cell adhesion inhibitory activity of the peptide set forth in SEQ ID NO: 2
Gly Leu Lys Pro Gly Val Asp Tyr Thr Ile Thr Val Ala Ala Val (GLKPGVDYTITVAAV; also: biotinylated (place not given here)) [SEQ ID NO: 8],cell adhesion inhibitory activity (alanine scanning),[3],equal to or greater than the cell adhesion inhibitory activity of the peptide set forth in SEQ ID NO: 2
Gly Leu Lys Pro Gly Val Asp Tyr Thr Ile Thr Val Tyr Ala Ala (GLKPGVDYTITVYAA; also: biotinylated (place not given here)) [SEQ ID NO: 9],cell adhesion inhibitory activity (alanine scanning),[3],equal to or greater than the cell adhesion inhibitory activity of the peptide set forth in SEQ ID NO: 2
Gly Leu Lys Pro Gly Val Asp Tyr Thr Ile Thr Val Tyr Ala Val (GLKPGVDYTITVYAV; also: biotinylated (place not given here)) [SEQ ID NO: 2],cell adhesion inhibitory action (number of spread cells),[4],exhibits no such action at all
same,cell adhesion inhibitory effect,"[3]; K562 cells in 0.1 mM Mn2+, fibronectin-coated plates, biotinylated peptide 50 to 200 μg/ml, 60 min, adherent cells counted",nearly equal to the activity of a known cell adhesion inhibitory peptide
same,cell adhesion inhibitory activity (alanine scanning),[3],cell adhesion inhibitory activity was noted
same,cell adhesion inhibitory effect,[5],nearly equal to the activity of the known cell adhesion inhibitory peptide
same,cell adhesion inhibitory action (number of spread cells),[6],exhibits no such action at all
same,cell adhesion inhibitory effect,[7],nearly equal to the activity of the known cell adhesion inhibitory peptide
SEQ ID NO: 10: known peptide possessing cell adhesion inhibitory activity (Japanese Unexamined Patent Application Hei 10-147600); sequence not printed in the text (TEATIYGLEPGTEYTIYVIAL) [reference compound],cell adhesion inhibitory action (number of spread cells),[4],had a cell adhesion inhibitory action; also recorded: possesses a cell spreading inhibitory action
same,cell adhesion inhibitory action (number of spread cells),[6],had a cell adhesion inhibitory action; also recorded: possesses a cell spreading inhibitory action

# From patent US6451971B1, “Physiologically active peptides” (Hisamitsu Pharmaceutical Co., Ltd., priority 1999, dated 2002)
